Assay results reported in patent US20210106582A1, “COMPOUNDS AND PHARMACEUTICAL COMPOSITIONS THEREOF FOR USE IN THE TREATMENT OF FIBROTIC DISEASES” (Galapagos NV, priority 2017, published 2021).
Where “and” joins values, the source holds several entries; their conditions need not be identical. Identical values can stand only once.

Experiments:
Type in all cases: in vivo
[1] = test system: male C57BL/6 mice fed a Methionine and Choline-deficient (MCD) diet; assay: MCD model (methionine and choline deficient diet, NASH); details: individual animals, 30 mg/kg q.d. p.o., MCD diet 8 wk
Experimental: The methionine and choline deficient (MCD) diet model is used to produce a severe phenotype of NASH in […] (Santhekadur et al., 2017), and is used to evaluate the compounds of the invention.
At induction, 8 weeks-old male C57BL/6 mice (Janvier Labs, France) maintained at 22° C.±2° C. and humidity at 55%±10%, with a 12-hrs dark/light cycle are fed a standard diet (chow (A04C-10, Safe, France) or a Methionine and Choline-deficient (MCD) diet (EFTD.90262, Ssniff, Soest, Germany) for 8 weeks. All animals have access to filtered tap drinking water.
Four weeks after the induction, the animals are either assigned to a control-group or a test-group.
Test group animals are dosed with the a test compound, i.e. Compound A (CpdA) or Compound B (CpdB), at 30 mg/kg, q.d., p.o. formulated in methylcellulose 0.5%, 1 equivalent HCl. The control groups receives a similar volume of vehicle (10 mL/kg), i.e. the standard diet for control group 1 (C1) and the MCD diet for control group 2 (C2). Mice are randomly assigned to a treatment group according to their body weight in order to ensure a homogenous reparation.
After sacrifice (week 8), the activity of the test compound on the development of NASH is assessed by plasma ALT and AST levels and in liver by histopathological examination of fibrosis and steatosis (Sirius red, Oil Red O), collagen (OH-Pro) and triglycerides content and expression of fibrotic and inflammatory genes.
In addition, the NAS score is determined to further evaluate the compounds with respect to their effect on diet induced NASH. The nonalcoholic fatty liver disease activity scoring (NAS) has been proposed and accepted as a tool to measure changes in NAFLD during therapeutic trials (Brunt et al., 2011; Kleiner et al., 2005).
The NAS score (0-8) is defined as the sum of the steatosis score (0-3), lobular inflammation score (0-3), ballooning score (0-2). A NAS score of ≥5 is indicative of a NASH diagnostic.

[2] = test system: male C57BL/6 mice fed CDAHF diet; assay: CDAHFD model (choline-deficient, L-amino acid-defined, high-fat diet); details: individual animals, CDAHFD 10W, 30 mg/kg q.d. p.o.
[3] = test system: C57BL/6N male mice, bleomycin induced pulmonary fibrosis; assay: Therapeutic bleomycin induced pulmonary fibrosis 21-day mice model; details: individual animals, BLM, CpdA 30 mg/kg BID PO D7-D21
Experimental: The aim of the study is to test the efficacy of a test compound at three different doses in a 21-day model of bleomycin induced pulmonary fibrosis in mice.
11 week-old C57BL/6N male mice from Charles River (Italy) are maintained on 12 h light/dark cycle at 22° C. with ad libidum access to tap water and food.
On day 0, all mice in groups 2-4 receive a 1.5 U/kg oropharyngeal administration of bleomycin (BLM) to induce pulmonary fibrosis Animals in group 1 are not administered bleomycin, but instead receive a single dose of saline via the oropharyngeal route, and are considered sham control mice.
Animals are examined clinically twice daily. List of clinical signs and parameters are indicated in humane endpoints table. Animals are weighed daily starting from DO.
On day 21, lung functionality is determined. After deep anesthesia induced by an intraperitoneal injection (10 mL/kg) of a solution of xylazine (5 mg/kg) and ketamine (75 mg/kg), the trachea is exposed through midline incision and a cannula is inserted. Mice are ventilated with a tidal volume of 10 mL/kg at a frequency of 150 breaths/minute. FlexiVent (SCIREQ®) perturbations are performed three times. Deep Inflation and Pressure-Volume loops (PV loops) with stepwise increasing pressure are performed to measure the Inspiratory Capacity and stepwise pressure-driven perturbation (PVs-P). PV loops between 0 and 30 cm H2O are generated to obtain Total Lung Capacity (A). A snapshot perturbation maneuver is imposed, which is a threefold sinusoidal wave of in- and expiration controlled by the ventilator, resulting in resistance (Rrs), compliance (Crs), and elastance (Ers) of the whole respiratory system (airways, lung and chest wall). A value for each group is calculated with average FlexiVent-validated measurements recorded in each individual subject.
Then, two hours after the last dose of test substance and nintedanib, mice are sacrificed by anesthetic overdose. The lungs are excised and weighed individually. The lungs are then placed into marked bottles containing 10% buffered formalin for further histopathological evaluation.
Body weight data and lung weight data are processed using MS Excel. Statistical analysis and graphical presentation are performed using GraphPad Prism software (version 5.04).
For histopathological evaluation, whole lungs are embedded in paraffin and stained with Mallory's trichrome.
Pulmonary histological changes are assessed using Matsuse's modification of Ashcroft score (Ashcroft et al., 1988; Matsuse et al., 1999). Statistical analysis and graphical presentation is performed using GraphPad Prism software (version 5.04). Mann-Whitney test is employed.
Differences between groups are considered statistically significant when p<0.05.

O=c1nc(OC[C@@H]2COCCO2)cc2n1CCc1cc(C#CC3CC3)ccc1-2 [Compound A, 9-Cyclopropylethynyl-2-((S)-1-[1,4]dioxan-2-ylmethoxy)-6,7-dihydro-pyrimido[6,1-a]isoquinolin-4-one]
TIMP1 NRQ gene expression ([1]; NRQ scaled versus disease, Fig 8 Panel B): 1.0 and 1.1 and 0.4 (3×) and 0.8 and 0.9 and 0.1 and 0.5 and 2.3
Col1a NRQ gene expression ([1]; dosing from week 4, Normalised Relative Quantity scaled versus disease, FIG. 8 Panel A): 0.3 and 0.8 (2×) and 1.0 and 0.5 and 0.1 and 0.4 and 2.1 and 0.6 and 2.4
TNfα NRQ gene expression ([1]; liver, NRQ scaled versus disease, Fig 9 Panel A): 0.8 (3×) and 1.4 and 1.0 and 0.7 and 0.5 and 0.1 and 1.5 and 0.4
CC12 NRQ gene expression ([1]; liver, NRQ scaled versus disease, Fig 9 Panel B): 0.5 (4×) and 1.2 and 0.6 (2×) and 0.7 and 0.2 and 1.0
NAS scoring data ([1]; total NAS score (0-8), Fig 10): 7.0 (4×) and 6.0 (4×) and 5.0 and 8.0
Col1a1 expression profiles (NRQ-scaled versus Disease-Vehicle) ([2]; Fig 12 panel A): 1.76 and 0.36 and 0.49 and 0.35 and 0.43 and 0.38 and 0.10 and 0.18 and 0.12 and 0.26
TNFα expression profiles (NRQ-scaled versus Disease-Vehicle) ([2]; Figure 12 panel B): 0.53 (2×) and 0.89 and 0.77 and 0.46 and 0.67 and 0.80 and 0.64 and 0.97 and 0.59
Fibrosis (Sirius red area %) ([2]; liver, Figure 11): 0.53% (2×) and 0.89% and 0.77% and 0.46% and 0.67% and 0.80% and 0.64% and 0.97% and 0.59%
Compliance of the Respiratory System ([3]; Figure 14 panel B): 0.034 mL/cmH2O and 0.030 mL/cmH2O and 0.035 mL/cmH2O and 0.037 mL/cmH2O and 0.036 mL/cmH2O and 0.033 mL/cmH2O and 0.041 mL/cmH2O (2×) and 0.031 mL/cmH2O and 0.038 mL/cmH2O and 0.046 mL/cmH2O and 0.042 mL/cmH2O
Elastance of the Respiratory System ([3]; Figure 14 panel C): 29.43 cmH2O/mL and 33.18 cmH2O/mL and 28.94 cmH2O/mL and 26.99 cmH2O/mL and 27.50 cmH2O/mL and 30.18 cmH2O/mL and 24.40 cmH2O/mL and 31.90 cmH2O/mL and 26.35 cmH2O/mL and 21.92 cmH2O/mL and 23.92 cmH2O/mL and 24.49 cmH2O/mL
Ashcroft Score ([3]; Matsuse's modification, Figure 13): 2.4 and 3.0 and 2.5 and 3.3 and 3.4 (2×) and 2.9 (2×) and 2.7 (2×) and 3.6 and 2.3 and 2.0 and 2.1
Inspiratory Capacity ([3]; day 21 FlexiVent, Figure 14 panel A): 0.58 mL (2×) and 0.66 mL and 0.65 mL and 0.59 mL and 0.75 mL and 0.69 mL (2×) and 0.84 mL and 0.73 mL and 0.71 mL
